Test results as given in patent US5079228A, “Peptide inhibitors of neutrophil activating factor induced chemotaxis” (Board of Regents, The University of Texas System, priority 1990, dated 1992).
Entries after “also recorded” stand apart in the source; their conditions may differ.

Key:
[1] = test system: neutrophil chemotaxis; details: Tanaka et al.; cited from earlier work
[2] = test system: cytochalasin B primed neutrophils; assay: Enzyme release from neutrophils (β-D-glucuronidase, microtiter plate); assay type: cell-based, human; details: 37° C., 30 min, FIG. 3
Protocol: Neutrophil enzyme release was measured by a modification of the method of Goldstein and colleagues.^23 Cytochalasin B (Sigma Chemical Co., St. Louis, Mo.) was stored in dimethylsulphoxide at a concentration of 5 mg/ml and diluted to a concentration of 100 μg/ml in Hanks' balanced salt solution (HBSS) immediately before use. Neutrophils were prepared as described and incubated at a cell density of 5×10^6 cells/ml for ten minutes at room temperature in the presence of Cytochalasin B (10 μg/ml). Aliquots of 100 μl of the primed cell suspension were then distributed into the wells of a 96-well microtiter plate and 100 μl of stimulant was added. The cells were then incubated at 37° C. for 30 min. The plates were centrifuged at 850 rpm for 5 min, and 100 μl of supernatant was removed. The supernatants were assayed for β-D-glucuronidase activity.
The ability of native NAF and the synthetic peptides to induce the release of β-D-glucuronidase from cytochalasin B primed neutrophils was examined using a microtiter plate technique. […]
β-D-glucuronidase was measured by determining the change in absorbance of phenolphthalein β-D-glucuronide (Sigma Chemical Co.) at 540 nm by the method of Gianetto and DeDuve.^24 The results were expressed as picomoles of substrate hydrolysed per hour.

[3] = test system: human neutrophils; assay: Neutrophil chemotaxis, leading front method in blind well chamber (chemotactic activity of the peptide itself); assay type: cell-based; details: for DISTANCE MOVED (% of control): control = RPMI-1640; for effect on cell migration (in words): peptide concentration of 1×10^-9 M, FIG. 1
Protocol: Each of the peptides was assayed for its ability to induce the directed migration of neutrophils towards itself. […] The distances migrated by the cells, under the influence of the various peptides, was therefore expressed as a percentage of the distance travelled in RPMI tissue culture medium alone. In the first experiments the effect of native NAF on the cells was compared to that of FMLP (FIG. I). […] None of the synthetic peptides induced chemotaxis either alone or in combination with one another when the synthetic peptides were examined under the same conditions (FIG. 2).
(§1) Human blood was anticoagulated with heparin.
(§2) Chemotaxis was performed using the leading front method as described by Zigmond and Hirsch.^21 The test material was placed in the lower well of a blind well chemotaxis chamber.^22 A five micron pore size, and 100 μl aliquot of the neutrophil preparation (1×10^6 cells/ml) in RPMI-1640 containing 1% albumin was added to the top of the filter and incubated at 37° C. for 30 min. (In some experiments neutrophils were pre-incubated in the presence of peptide for 10 min at room temperature before being added to the upper chamber.) The filter was then fixed and stained and mounted on a glass microscope slide. The leading front was determined by the position of the leading two cells. The distance that the leading two cells had moved through the filter was measured for six fields on each filter. The measurements were made with two filters for each set of conditions.

[4] = test system: chemotaxis induced by FMLP; assay: Specificity: effect on FMLP-induced neutrophil chemotaxis; assay type: cell-based, human; details: FMLP 5 × 10^-9 M plus peptide 1 × 10^-6 M
Source text: The peptides were examined to determine if any of the peptides could block the action of the native molecule. In these experiments the attractant in the lower well of the Boyden chamber contained both native NAF (1×10^-8 M) and one or more synthetic peptide(s) (1×10^-6 M) Table 2. The migration of the cells in RPMI tissue culture medium alone, or under the influence of native NAF or the individual peptides was also examined in each experiment. […] The mean migration of native NAF was an average of 79% (S.D.=3) above that of buffer alone, while the mean migration towards native NAF in the presence of NAF (3-25) was 32% (S.D.=10) and the mean migration towards native NAF in the presence of NAF (44-72) (S.D.=13) was 52% above control migration (Table 2). These reductions are statistically significant at p<0.002 by Student's t test. […]
Chemotaxis was performed using the leading front method as described by Zigmond and Hirsch.^21 The test material was placed in the lower well of a blind well chemotaxis chamber.^22 A five micron pore size, and 100 μl aliquot of the neutrophil preparation (1×10^6 cells/ml) in RPMI-1640 containing 1% albumin was added to the top of the filter and incubated at 37° C. for 30 min. […] The leading front was determined by the position of the leading two cells. The distance that the leading two cells had moved through the filter was measured for six fields on each filter. […]

[5] = test system: Neutrophil activating factor induced human neutrophil chemotaxis; assay: Inhibition of NAF-induced neutrophil chemotaxis; assay type: cell-based
Source text: The peptides were examined to determine if any of the peptides could block the action of the native molecule. In these experiments the attractant in the lower well of the Boyden chamber contained both native NAF (1×10^-8 M) and one or more synthetic peptide(s) (1×10^-6 M) Table 2. The migration of the cells in RPMI tissue culture medium alone, or under the influence of native NAF or the individual peptides was also examined in each experiment. […] The mean migration of native NAF was an average of 79% (S.D.=3) above that of buffer alone, while the mean migration towards native NAF in the presence of NAF (3-25) was 32% (S.D.=10) and the mean migration towards native NAF in the presence of NAF (44-72) (S.D.=13) was 52% above control migration (Table 2). These reductions are statistically significant at p<0.002 by Student's t test. These two peptides inhibited NAF induced migration by 59 and 34% respectively. When NAF was incubated in the presence of both peptides the mean migration towards native NAF was 24% (S.D.=3) above controls for a total inhibition of NAF activity of 70%. Therefore, the inhibitory effects of the peptides were approximately additive.
as §1, §2

[6] = NAF 1 × 10^-8 M plus peptide 1 × 10^-6 M in lower well
[7] = NAF 1 × 10^-8 M, neutrophils preincubated with peptide 1 × 10^-6 M (10 min, room temperature)

Which “chemotactic activity (in words)” value [1] does the source give for “(7-37): peptide of Tanaka et al. corresponding to residues (7-37) of the NAF sequence (AKELRCQCIKTYSKPFHPKFIKELRVIESGP; Interleukin-8; UniProt P10145 29-59, looked up, fragment)” here?
Its value is “inactive”.

What about the “inhibition of chemotaxis (in words)” value [1] of the same substance?
The value was “did not find that any of their synthetic peptides inhibited chemotaxis”.

For “(17-37): peptide of Tanaka et al. corresponding to residues (17-37) of the NAF sequence (TYSKPFHPKFIKELRVIESGP; Interleukin-8; UniProt P10145 39-59, looked up, fragment)”, which “chemotactic activity (in words)” value [1] is on record?
The value was “inactive”.

What about the “inhibition of chemotaxis (in words)” value [1] of the same substance?
The value was “did not find that any of their synthetic peptides inhibited chemotaxis”.

Which results are given for “(30-72): peptide of Tanaka et al. corresponding to residues (30-72) of the NAF sequence (LRVIESGPHCANTEIIVKLSDGRELCLDPKENWVQRVVEKFLK; Interleukin-8; UniProt P10145 52-94, looked up, fragment)”?
chemotactic activity (in words) [1]: inactive; inhibition of chemotaxis (in words) [1]: did not find that any of their synthetic peptides inhibited chemotaxis

With FMLP as the substance, how does the “release of β-D-glucuronidase from neutrophils (in words)” value [2] read?
Its value is “stimulated release from the cells was possible”.

What about the “DISTANCE MOVED (% of control)” value ([3]; FMLP alone, 5 × 10^-9 M) of the same substance?
The value was 180 ± 17 % of control.

And the “effect on cell migration (in words)” value [3]?
Its value is “increase the cell migration”.

With KELRCQCIKTYSKPFHPKFIKEL [NAF(3-25)] as the substance, how does the “DISTANCE MOVED (% of control)” value [4] read?
Its value is 190 ± 18 % of control.

And the “DISTANCE MOVED (% of control)” value [5, 6]?
Its value is 132 ± 10 % of control.

And the “INHIBITION (%) of NAF-induced neutrophil chemotaxis” value (from here on “INHIBITION (%)”) [5, 6]?
Its value is 59 ± 13%.

And the “INHIBITION (%)” value ([5]; NAF 1 × 10^-8 M plus peptide 1 × 10^-6 M in lower well, listed as NAF (3-25))?
Its value is 59%.

And the “DISTANCE MOVED (% of control)” value [5, 7]?
The value was 97 ± 11 % of control.

What about the “INHIBITION (%)” value [5, 7] of the same substance?
Its value is 104 ± 14%.

What about the “mean migration towards native NAF in the presence of peptide, above control migration” value ([5]; native NAF 1 × 10^-8 M plus synthetic peptide(s) 1 × 10^-6 M) of the same substance?
The value was 32%.

And the “effect on the action of native NAF (in words)” value ([5]; native NAF plus synthetic peptide)?
The value was “able to reduce neutrophil chemotaxis; also recorded: reduce the action of native NAF”.

What about the “DISTANCE MOVED (% of control)” value ([3]; synthetic peptide alone, 1 × 10^-6 M in lower well) of the same substance?
The value was 100 ± 6 % of control.

With Neutrophil activating factor [NAF] as the substance, how does the “release of β-D-glucuronidase from neutrophils (in words)” value [2] read?
The value was “Neither NAF nor any of the synthetic peptides caused the cells to degranulate; also recorded: failed to release β-D-glucuronidase; also recorded: None of the synthetic peptides, nor native NAF, caused release of β-D-glucuronidase”.

What about the “DISTANCE MOVED (% of control)” value ([3]; NAF alone, 1 × 10^-8 M) of the same substance?
The value was 179 ± 3 % of control.

And the “mean migration above that of buffer alone” value ([3]; native NAF 1 × 10^-8 M)?
The value was 79%.

And the “effect on cell migration (in words)” value [3]?
Its value is “increase the cell migration”.
